Drawing on patent publication US9718782B2, “TrkA kinase inhibitors, compositions and methods thereof” (MERCK SHARP & DOHME CORP, priority 2013, dated 2017), this text covers IC50 for 40 compounds.

For the assay, the target named is T1, TrkA receptor (Homo sapiens, UniProt P04629).
T1 construct: host or cells: U2OS (PathHunter, 'TrkA p75' cells)
T1 sequence (P04629 33-796): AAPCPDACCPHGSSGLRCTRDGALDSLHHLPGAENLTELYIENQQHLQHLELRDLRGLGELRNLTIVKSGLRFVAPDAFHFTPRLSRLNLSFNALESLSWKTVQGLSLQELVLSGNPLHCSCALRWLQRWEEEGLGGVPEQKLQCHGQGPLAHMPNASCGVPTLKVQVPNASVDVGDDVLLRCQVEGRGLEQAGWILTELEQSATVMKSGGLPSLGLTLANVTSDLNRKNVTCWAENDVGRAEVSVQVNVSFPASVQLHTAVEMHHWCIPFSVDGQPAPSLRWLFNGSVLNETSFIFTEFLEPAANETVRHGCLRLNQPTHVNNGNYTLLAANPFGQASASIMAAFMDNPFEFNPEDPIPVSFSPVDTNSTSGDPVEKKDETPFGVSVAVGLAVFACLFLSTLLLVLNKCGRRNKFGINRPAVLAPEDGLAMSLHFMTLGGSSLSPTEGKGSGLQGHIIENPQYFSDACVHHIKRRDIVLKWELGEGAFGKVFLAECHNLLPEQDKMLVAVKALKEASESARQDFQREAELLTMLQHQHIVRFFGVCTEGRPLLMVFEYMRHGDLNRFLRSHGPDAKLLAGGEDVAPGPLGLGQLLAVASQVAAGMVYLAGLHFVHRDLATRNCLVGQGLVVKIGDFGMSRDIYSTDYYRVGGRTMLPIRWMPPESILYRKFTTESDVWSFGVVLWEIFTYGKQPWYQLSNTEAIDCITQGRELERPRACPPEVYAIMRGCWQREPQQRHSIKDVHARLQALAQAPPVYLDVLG
The assay can be described thus: DiscoverX PathHunter TrkA functional assay (NGF-stimulated U2OS cells). In kind it is cell-based. As to conditions: U2OS cells expressing TrkA-Prolink fusion and Shc1-EA; compound 1 hour, then EC80 NGF 3 hours; luminescence. As for the experimental part: TrkA functional activity was measured using a DiscoverX PathHunter assay. In this assay, U2OS cells are express TrkA receptor as a fusion with the weakly complementing fragment of B-galactosidase, which DiscoverX calls “Prolink (PK)”; additionally, Shcl is fused with a larger fragment, which is called “Enzyme Acceptor (EA)”. Activation of the TrkA receptor, upon NGF addition, results in the kinase domain being phosphorylated, resulting in subsequent recruitment of Shcl-EA protein. That recruitment results in an active B-galactosidase enzyme that is detected by addition of a chemiluminescent substrate.
All reagents were purchased from DiscoverX, except for the receptor agonists (NGF, BDNF, NT3) which were purchased from Peprotech. Cells were expanded and frozen into cryovials (TrkA p75 @passage 13, 1.5×10^7 cells/vial; TrkC p75 @passage 11, 1.5×10^7 cells/vial in InVitrogen Recovery Cell Freezing media), and stored in the vapor phase of liquid nitrogen, and thawed immediately before use. Thawed cells were added to a 384-well plate (BD Falcon 384-well white/clear, TC surface 120 uL assay plates (353963), 20 uL of 0.375e6 cells/mL=>7500 cells/well), and allowed to incubate overnight. Compound (10 mM starting dose: 202.5 nL compound yielding 0.81% DMSO final in total assay volume and starting doses 81 uM) was added the following morning and allowed to incubate on cells for 1 hour. Then, 5 uL EC80 of agonist (NGF for TrkA; BDNF for TrkB; NT3 for TrkC) was added and allowed to incubate for 3 hours at room temperature. DiscoverX PathHunter detection reagent is added (12 uL to plate and components diluted in parts as per kit instructions) and the plate is further incubated for 1 hour in the dark. The plate is read via luminescence on the Perkin Elmer Envision.
For the compound `Cc1nn(-c2ccc(F)cc2)c(NC(=O)NC2c3ccccc3-c3ccccc32)c1C#N` [Compound 23, 1-[4-cyano-1-(4-fluorophenyl)-3-methyl-1H-pyrazol-5-yl]-3-(9H-fluoren-9-yl)urea], the half-inhibitory concentration (IC50) (usually the concentration needed to halve the response being measured) stood at 330 nM. The value for `Cn1nc(-c2ccccc2)cc1NC(=O)NC1c2ccccc2-c2ccccc21` [Compound 56, 1-(9H-fluoren-9-yl)-3-(1-methyl-3-phenyl-1H-pyrazol-5-yl)urea] was 410 nM; that for `CNc1ncccc1NC(=O)NC1c2ccccc2-c2ccccc21` [Compound 26, 1-(9H-fluoren-9-yl)-3-[2-(methylamino)pyridin-3-yl]urea] was 520 nM; that for `O=C(Nc1cccc(-c2nnc3n2CCC3)c1)NC1c2ccccc2-c2ccccc21` [Compound 43, 1-[3-(6,7-dihydro-5H-pyrrolo[2,1-c] [1,2,4]triazol-3-yl)phenyl]-3-(9H-fluoren-9-yl)urea] was 130 nM.

Take `Cc1nn(C)c(NC(=O)NC2c3ccccc3-c3ccccc32)c1-c1ccccc1` [Compound 10, 1-(1,3-dimethyl-4-phenyl-1H-pyrazol-5-yl)-3-(9H-fluoren-9-yl)urea]: the concentration for half-maximal inhibition (IC50) is 210 nM.

As to `Cc1ccc(NC(=O)NC2c3ccccc3-c3ccccc32)cn1` [Compound 13, 1-(9H-fluoren-9-yl)-3-(6-methylpyridin-3-yl)urea], inhibition was half-maximal at 2500 nM (IC50). `O=C(Nc1ccccc1-c1ccccc1)NC1c2ccccc2-c2ccccc21` [Compound 31, 1-biphenyl-2-yl-3-(9H-fluoren-9-yl)urea] gave an IC50 of 960 nM. In turn, `O=C(Nc1cccnc1-c1ccco1)NC1c2ccccc2-c2ccccc21` [Compound 54, 1-(9H-fluoren-9-yl)-3-(2-furan-2-ylpyridin-3-yl)urea] returned an IC50 of 2800 nM.

The compound `O=C(Nc1cccnc1C1CCCCC1)NC1c2ccccc2-c2ccccc21` [Compound 40, 1-(2-cyclohexylpyridin-3-yl)-3-(9H-fluoren-9-yl)urea] yielded an IC50 of 200 nM.

`Cc1ncc(NC(=O)NC2c3ccccc3-c3ccccc32)c(-c2ccccc2)n1` [Compound 4, 1-(9H-fluoren-9-yl)-3-(2-methyl-4-phenylpyrimidin-5-yl)urea] yielded an IC50 of 82 nM. The value for `Cc1nc(-c2ccccc2)c(NC(=O)NC2c3ccccc3-c3ccccc32)o1` [Compound 81, 1-(9H-fluoren-9-yl)-3-(2-methyl-4-phenyl-1,3-oxazol-5-yl)urea] was 3900 nM. Compound `Cn1cnc(-c2ccccc2)c1NC(=O)NC1c2ccccc2-c2ccccc21` [Compound 22, 1-(9H-fluoren-9-yl)-3-(1-methyl-4-phenyl-1H-imidazol-5-yl)urea] yielded an IC50 of 310 nM. In turn, `O=C(Nc1cc(C2CC2)nn1-c1ccccc1)NC1c2ccccc2-c2ccccc21` [Compound 19, 1-(3-cyclopropyl-1-phenyl-1H-pyrazol-5-yl)-3-(9H-fluoren-9-yl)urea] displayed a 50% inhibitory concentration (IC50) of 69 nM. In turn, `Cc1nccn1-c1cccc(NC(=O)NC2c3ccccc3-c3ccccc32)c1` [Compound 38, 1-(9H-fluoren-9-yl)-3-[3-(2-methyl-1H-imidazol-1-yl)phenyl]urea] showed an IC50 of 3000 nM. Compound `O=C(Nc1cccnc1-c1cccnc1)NC1c2ccccc2-c2ccccc21` [Compound 51, 1-(2,3′-bipyridin-3-yl)-3-(9H-fluoren-9-yl)urea] came in with a half-maximal inhibitory concentration (IC50) of 3000 nM. Regarding `Cn1nccc1-c1cncc(NC(=O)NC2c3ccccc3-c3ccccc32)c1` [Compound 73, 1-(9H-fluoren-9-yl)-3-[5-(1-methyl-1H-pyrazol-5-yl)pyridin-3-yl]urea], the IC50 came to 2800 nM. Consider `O=C(Nc1cccc(-c2nnc[nH]2)c1)NC1c2ccccc2-c2ccccc21` [Compound 48, 1-(9H-fluoren-9-yl)-3-[3-(4H-1,2,4-triazol-3-yl)phenyl]urea], for which the half-inhibitory concentration (IC50) was determined as 360 nM. As to `Cc1onc(-c2ccccc2)c1NC(=O)NC1c2ccccc2-c2ccccc21` [Compound 8, 1-(9H-fluoren-9-yl)-3-(5-methyl-3-phenylisoxazol-4-yl)urea], the IC50 worked out at 190 nM. `Cc1ccc(NC(=O)NC2c3ccccc3-c3ccccc32)c(-c2ccccc2)n1` [Compound 1, 1-(9H-fluoren-9-yl)-3-(6-methyl-2-phenylpyridin-3-yl)urea] registered an IC50 of 69 nM.

The compound `Cc1nnnn1-c1cccc(NC(=O)NC2c3ccccc3-c3ccccc32)c1` [Compound 33, 1-(9H-fluoren-9-yl)-3-[3-(5-methyl-1H-tetrazol-1-yl)phenyl]urea] had a 50% inhibitory concentration (IC50) of 1700 nM. Take `Cc1cnc(-c2cccc(NC(=O)NC3c4ccccc4-c4ccccc43)c2)o1` [Compound 62, 1-(9H-fluoren-9-yl)-3-[3-(5-methyl-1,3-oxazol-2-yl)phenyl]urea]: half-maximal inhibition (IC50) required 1300 nM. `O=C(Nc1c2cnc3ccccc3c2nn1-c1ccccc1)NC1c2ccccc2-c2ccccc21` [Compound 25, 1-(9H-fluoren-9-yl)-3-(2-phenyl-2H-pyrazolo[4,3-c]quinolin-3-yl)urea]: the concentration for half-maximal inhibition (IC50) was 1400 nM. Compound `O=C(Nc1conc1-c1ccccc1)NC1c2ccccc2-c2ccccc21` [Compound 70, 1-(9H-fluoren-9-yl)-3-(3-phenylisoxazol-4-yl)urea] came in with a concentration for half-maximal inhibition (IC50) of 2200 nM. In turn, `O=C(Nc1cccnc1-c1cccc(F)c1)NC1c2ccccc2-c2ccccc21` [Compound 75, 1-(9H-fluoren-9-yl)-3-[2-(3-fluorophenyl)pyridin-3-yl]urea] showed an IC50 of 190 nM. Regarding `Cc1cc(NC(=O)NC2c3ccccc3-c3ccccc32)n(-c2ccccc2)n1` [Compound 7, 1-(9H-fluoren-9-yl)-3-(3-methyl-1-phenyl-1H-pyrazol-5-yl)urea], the IC50 amounted to 44 nM. `O=C(Nc1cccnc1-c1ccccc1F)NC1c2ccccc2-c2ccccc21` [Compound 76, 1-(9H-fluoren-9-yl)-3-[2-(2-fluorophenyl)pyridin-3-yl]urea] gave a half-inhibitory concentration (IC50) of 320 nM. The value for `O=C(Nc1cccc(-c2nnco2)c1)NC1c2ccccc2-c2ccccc21` [Compound 49, 1-(9H-fluoren-9-yl)-3-[3-(1,3,4-oxadiazol-2-yl)phenyl]urea] was 2800 nM.

On to `Cc1ncc(NC(=O)NC2c3ccccc3-c3ccccc32)c(-c2ccc(F)cc2)n1` [Compound 28, 1-(9H-fluoren-9-yl)-3-[4-(4-fluorophenyl)-2-methylpyrimidin-5-yl]urea], for which half-maximal inhibition (IC50) required 150 nM. Next, `O=C(Nc1cccnc1-c1ccccc1)NC1c2ccccc2-c2ccccc21` [Compound 11, 1-(9H-fluoren-9-yl)-3-(2-phenylpyridin-3-yl)urea]: 27 nM.

In turn, `O=C(Nc1ccccc1N1CCOCC1)NC1c2ccccc2-c2ccccc21` [Compound 35, 1-(9H-fluoren-9-yl)-3-(2-morpholin-4-ylphenyl)urea] had an IC50 of 4000 nM. Next, `CC(C)Cc1cc(NC(=O)NC2c3ccccc3-c3ccccc32)n(-c2ccccc2)n1` [Compound 17, 1-(9H-fluoren-9-yl)-3-[3-(2-methylpropyl)-1-phenyl-1H-pyrazol-5-yl]urea]: 200 nM. As for `O=C(Nc1cccc(-c2nc(C3CC3)n[nH]2)c1)NC1c2ccccc2-c2ccccc21` [Compound 45, 1-[3-(3-cyclopropyl-1H-1,2,4-triazol-5-yl)phenyl]-3-(9H-fluoren-9-yl)urea], half-maximal inhibition (IC50) was put at 1400 nM.

In turn, `O=C(Nc1cc(F)cnc1-c1ccccc1)NC1c2ccccc2-c2ccccc21` [Compound 84, 1-(9H-fluoren-9-yl)-3-(5-fluoro-2-phenylpyridin-3-yl)urea] registered a concentration for half-maximal inhibition (IC50) of 47 nM. `O=C(Nc1ccnn1-c1ccccc1)NC1c2ccccc2-c2ccccc21` [Compound 14, 1-(9H-fluoren-9-yl)-3-(1-phenyl-1H-pyrazol-5-yl)urea] displayed an IC50 of 120 nM. With `O=C(Nc1ccnc(-c2ccccc2)c1)NC1c2ccccc2-c2ccccc21` [Compound 80, 1-(9H-fluoren-9-yl)-3-(2-phenylpyridin-4-yl)urea], the IC50 worked out at 670 nM. The compound `O=C(Nc1cccnc1)NC1c2ccccc2-c2ccccc21` [Compound 66, 1-(9H-fluoren-9-yl)-3-pyridin-3-ylurea] showed an IC50 of 3500 nM. Compound `Cn1cnnc1-c1cccc(NC(=O)NC2c3ccccc3-c3ccccc32)c1` [Compound 42, 1-(9H-fluoren-9-yl)-3-[3-(4-methyl-4H-1,2,4-triazol-3-yl)phenyl]urea] had a concentration for half-maximal inhibition (IC50) of 110 nM. Turning to `Cc1nc(-c2ccccc2)c(NC(=O)NC2c3ccccc3-c3ccccc32)s1` [Compound 2, 1-(9H-fluoren-9-yl)-3-(2-methyl-4-phenyl-1,3-thiazol-5-yl)urea], the concentration for half-maximal inhibition (IC50) was determined as 140 nM. `Cc1nnc(-c2cccc(NC(=O)NC3c4ccccc4-c4ccccc43)c2)n1C` [Compound 86, 1-[3-(4,5-dimethyl-4H-1,2,4-triazol-3-yl)phenyl]-3-(9H-fluoren-9-yl)urea] had an IC50 of 250 nM. For `O=C(Nc1cnccc1-c1ccccc1)NC1c2ccccc2-c2ccccc21` [Compound 12, 1-(9H-fluoren-9-yl)-3-(4-phenylpyridin-3-yl)urea], half-maximal inhibition (IC50) required 280 nM.
